Assay results as given in patent publication US12472231B2 (priority 2020, dated 2025).
Where a SMILES comes first, the peptide text is derived from it.

System: A(H1N1)pdm09 virus
Experiment: microbe, parasite or virus in culture
Type: cell-based

## CC[C@H](C)[C@H](NC(=O)[C@H](C)NC(=O)CNC(=O)[C@@H](N)CC(N)=O)C(=O)N[C@@H](CS)C(=O)N[C@@H](Cc1c[nH]c2ccccc12)C(=O)NCC(=O)N1CCC[C@H]1C(=O)N[C@@H](CS)C(=O)N1CCC[C@H]1C(=O)N[C@H](C(=O)N[C@@H](C)C(=O)N[C@@H](Cc1ccccc1)C(=O)N[C@@H](CCCNC(=N)N)C(=O)N[C@@H](CCC(N)=O)C(=O)N[C@H](C(=O)NCC(=O)N[C@@H](CC(N)=O)C(=O)N[C@@H](CS)C(=O)NCC(=O)N[C@@H](CCCNC(=N)N)C(=O)N[C@@H](Cc1ccccc1)C(=O)N[C@@H](CCCNC(=N)N)C(=O)N[C@H](C(=O)N[C@@H](CCCNC(=N)N)C(=O)N[C@@H](CS)C(=O)N[C@@H](CS)C(=O)N[C@@H](CCCNC(=N)N)C(=O)N[C@H](C(=O)N[C@@H](CCCNC(=N)N)C(=O)O)[C@@H](C)CC)C(C)C)[C@@H](C)CC)[C@@H](C)O [P9R] (H-NGAICWGPCPTAFRQIGNCGRFRVRCCRIR-OH)
  emergence of drug-resistant virus after serial passages in presence of the agent: No obvious drug-resistant virus
  inhibition of P30 virus replication: could efficiently inhibit
  inhibition of P40 virus replication: could efficiently inhibit
